Laboratory results: patent EP4722215A1, “AMORPHOUS SUBSTANCE AND CRYSTAL OF DIOXOPIPERIDINE COMPOUND OR PHARMACEUTICALLY ACCEPTABLE SALT THEREOF, PREPARATION METHOD, AND USE” (Jiangsu Hengrui Pharmaceuticals Co., Ltd., priority 2023, dated 2024)
Structures can show the parent of a compound that is named as a salt. Each block holds one molecule with its values, some of them ahead of it.

Experiments:
[1] = Long-term/accelerated stability study (sealed in aluminum foil bags); assay type: physicochemical; settings: for Crystal form: up to 6 months
Text: The results are shown below. Table 16
The results are shown below. Table 20

androgen receptor (AR) = target: T1, androgen receptor (AR) (Homo sapiens, UniProt P10275, T878A); assay: Degradation activity on androgen receptor in LNCaP cells (AR ELISA); assay type: cell-based; settings: 0.1 nM R1881, 24 h
T1 construct: host or cells: LNCaP
Experimental: After five washes, 100 µL of detection antibody working solution was added. […] After five washes, 100 µL of enzyme conjugate working solution was added. […] After five washes, 100 µL of substrate solution was added.

[2] = Influencing factor stability study (open containers, high temperature / high humidity, 30 days); assay type: physicochemical
Experimental: Influencing factor stability study: Samples of the free-state form were taken, spread in open containers, and left to stand under high-temperature (40 °C and 60 °C) and high-humidity (RH 75% and RH 92.5%) conditions for 30 days to study its stability.
Influencing factor stability study of salt forms: Samples of the salt forms were taken, spread in open containers, and left to stand under high-temperature (40 °C and 60 °C) and high-humidity (RH 75%) conditions for 30 days to study their stability.

[3] = Dynamic vapor sorption (DVS) hygroscopicity; assay type: physicochemical
[4] = Pharmacokinetic evaluation in cynomolgus monkeys, intragastric administration, plasma LC/MS/MS; assay type: in vivo; settings: both sexes, cynomolgus monkey, po, i.g., 2.0 mg/kg
Experimental: Cynomolgus monkeys were used as test animals.
Eight cynomolgus monkeys (half male and half female, provided by Shanghai Medicilon Inc.) were evenly divided into 2 groups.
Access to food and ad libitum access to water were given 3 h after administration.

in vivo = settings: both, beagle, dog, plasma, po, 2 mg/kg
Experimental: Beagles were used as test animals. The plasma concentrations of a compound of the present disclosure in beagles at different time points after intragastric (i.g.) administration were determined using an LC/MS/MS method. The pharmacokinetic behavior of the compound of the present disclosure in beagles was studied, and its pharmacokinetic profile was evaluated.
Eight beagles (half male and half female, provided by Jiangsu Johnbio Biotechnology Co., Ltd.) were evenly divided into 2 groups. The animals were fasted overnight and then subjected to intragastric administration.
The administration dose was 2.0 mg/kg, and the administration volume was 5.0 mL/kg.
The samples were then placed into EDTA-K2 anticoagulation test tubes and centrifuged at 10,000 rpm for 2 min (4 °C), and plasma was separated within 1 h and stored at -80 °C before analysis. The procedures from the blood collection to the centrifugation were performed under ice-bath conditions. Access to food was given 3 h after administration.
After administration of different concentrations of the test compounds, the plasma concentrations of the test compounds in the beagles were determined as follows: 50 µL of each of the beagle plasma samples collected at various time points after administration was taken; 25 µL of camptothecin (1 µg/mL) and 450 µL of acetonitrile were added to precipitate protein, and the mixture was vortex-mixed and then centrifuged at 3700 rpm for 10 min; 0.5 µL of the supernatant was taken for LC/MS/MS analysis.

T1 sequence (P10275 whole entry T878A): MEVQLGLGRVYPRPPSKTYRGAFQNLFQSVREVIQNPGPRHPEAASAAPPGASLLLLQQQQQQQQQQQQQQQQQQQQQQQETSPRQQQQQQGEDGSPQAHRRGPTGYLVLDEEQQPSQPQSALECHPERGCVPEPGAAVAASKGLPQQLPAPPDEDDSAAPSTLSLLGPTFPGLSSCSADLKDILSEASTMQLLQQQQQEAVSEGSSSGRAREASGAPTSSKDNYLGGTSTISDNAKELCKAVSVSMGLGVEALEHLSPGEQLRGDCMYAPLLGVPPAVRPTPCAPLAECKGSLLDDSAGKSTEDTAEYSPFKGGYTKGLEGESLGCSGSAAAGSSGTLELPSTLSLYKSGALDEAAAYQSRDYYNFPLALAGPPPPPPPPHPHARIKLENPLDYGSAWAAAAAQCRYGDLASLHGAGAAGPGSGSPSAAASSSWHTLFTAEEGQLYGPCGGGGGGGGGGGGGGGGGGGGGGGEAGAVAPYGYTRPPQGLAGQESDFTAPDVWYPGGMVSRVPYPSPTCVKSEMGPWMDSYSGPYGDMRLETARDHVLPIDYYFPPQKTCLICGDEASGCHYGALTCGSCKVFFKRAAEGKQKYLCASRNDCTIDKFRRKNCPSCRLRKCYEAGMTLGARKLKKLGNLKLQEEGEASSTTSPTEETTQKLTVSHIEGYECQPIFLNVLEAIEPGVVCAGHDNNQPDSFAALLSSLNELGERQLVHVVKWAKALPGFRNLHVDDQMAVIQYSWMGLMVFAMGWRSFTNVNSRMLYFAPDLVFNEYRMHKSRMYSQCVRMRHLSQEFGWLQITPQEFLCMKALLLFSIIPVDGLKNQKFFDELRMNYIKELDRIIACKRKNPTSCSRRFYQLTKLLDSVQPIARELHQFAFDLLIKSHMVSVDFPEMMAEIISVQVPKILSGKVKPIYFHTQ
T1 sequence (Q96SW2 whole entry partner): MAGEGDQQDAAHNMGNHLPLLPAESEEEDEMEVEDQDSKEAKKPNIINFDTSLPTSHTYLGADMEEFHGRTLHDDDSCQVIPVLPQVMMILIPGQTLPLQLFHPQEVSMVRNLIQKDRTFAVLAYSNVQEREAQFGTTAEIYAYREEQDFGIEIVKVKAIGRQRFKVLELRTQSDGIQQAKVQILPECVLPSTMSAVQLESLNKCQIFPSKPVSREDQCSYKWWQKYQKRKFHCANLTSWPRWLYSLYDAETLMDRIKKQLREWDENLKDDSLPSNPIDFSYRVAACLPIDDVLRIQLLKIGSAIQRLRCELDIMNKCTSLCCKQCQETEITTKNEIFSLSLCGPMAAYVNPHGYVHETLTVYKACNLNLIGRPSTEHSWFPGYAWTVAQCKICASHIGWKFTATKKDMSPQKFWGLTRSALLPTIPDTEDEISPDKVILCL

Compound: C[C@H]1CC2(CCN(c3ccc(C(=O)N4CCC(CN5CCN(c6cccc(N[C@H]7CCC(=O)NC7=O)c6)CC5)CC4)cc3F)CC2)CN1c1ccc(C#N)c(Cl)c1 [Amorphous form of maleate]
Purity (%) ([1]; 25 °C/60% RH, 1 month): 98.9% | Purity (%) ([1]; 25 °C/60% RH, 2 months): 98.9% | Purity (%) ([1]; 25 °C/60% RH, 3 months): 98.9% | Purity (%) ([1]; 25 °C/60% RH, 6 months): 98.7% | Purity (%) ([1]; 25 °C/60% RH, Initial): 98.9% | Crystal form ([1]; 25 °C/60% RH): No change | Purity (%) ([1]; 40 °C/75% RH, 1 month): 98.7% | Purity (%) ([1]; 40 °C/75% RH, 2 months): 98.6% | Purity (%) ([1]; 40 °C/75% RH, 3 months): 98.3% | Purity (%) ([1]; 40 °C/75% RH, 6 months): 94.8% | Purity (%) ([1]; 40 °C/75% RH, Initial): 98.9% | Crystal form ([1]; 40 °C/75% RH): No change

Compound: C[C@H]1CC2(CCN(c3ccc(C(=O)N4CCC(CN5CCN(c6cccc(N[C@H]7CCC(=O)NC7=O)c6)CC5)CC4)cc3F)CC2)CN1c1ccc(C#N)c(Cl)c1 [Crystal form B of succinate]
Purity (%) ([1]; 25 °C/60% RH, 1 month): 98.5% | Purity (%) ([1]; 25 °C/60% RH, 2 months): 98.5% | Purity (%) ([1]; 25 °C/60% RH, 3 months): 98.7% | Purity (%) ([1]; 25 °C/60% RH, 6 months): 98.6% | Purity (%) ([1]; 25 °C/60% RH, Initial): 98.7% | Crystal form ([1]; 25 °C/60% RH): No change | Purity (%) ([1]; 40 °C/75% RH, 1 month): 98.5% | Purity (%) ([1]; 40 °C/75% RH, 2 months): 98.5% | Purity (%) ([1]; 40 °C/75% RH, 3 months): 98.5% | Purity (%) ([1]; 40 °C/75% RH, 6 months): 98.3% | Purity (%) ([1]; 40 °C/75% RH, Initial): 98.7% | Crystal form ([1]; 40 °C/75% RH): No change

Compound: C[C@H]1CC2(CCN(c3ccc(C(=O)N4CCC(CN5CCN(c6cccc(N[C@H]7CCC(=O)NC7=O)c6)CC5)CC4)cc3F)CC2)CN1c1ccc(C#N)c(Cl)c1 [Example 1-1, 2-Chloro-4-((S)-8-(4-(4-((4-(3-(((S)-2,6-dioxopiperidin-3-yl)amino)phenyl)piperazin-1-yl)methyl)piperidine-1-carbonyl)-2-fluorophenyl)-3-methyl-2,8-diazaspiro[4.5]decan-2-yl)benzonitrile]
DC50 (androgen receptor (AR)): 4.2 nM

Compound: C[C@H]1CC2(CCN(c3ccc(C(=O)N4CCC(CN5CCN(c6cccc(N[C@@H]7CCC(=O)NC7=O)c6)CC5)CC4)cc3F)CC2)CN1c1ccc(C#N)c(Cl)c1 [Example 1-2, 2-Chloro-4-((S)-8-(4-(4-((4-(3-(((R)-2,6-dioxopiperidin-3-yl)amino)phenyl)piperazin-1-yl)methyl)piperidine-1-carbonyl)-2-fluorophenyl)-3-methyl-2,8-diazaspiro[4.5]decan-2-yl)benzonitrile]
DC50 (androgen receptor (AR)): 14.2 nM

Compound: C[C@H]1CC2(CCN(c3ccc(C(=O)N4CCC(CN5CCN(c6cccc(N[C@H]7CCC(=O)NC7=O)c6)CC5)CC4)cc3F)CC2)CN1c1ccc(C#N)c(Cl)c1 [Crystal form I of hydrochloride]
Crystal form ([2]; 40 °C, 5 days): No change | Purity (%) ([2]; 40 °C, 5 days): 97.5% | Crystal form ([2]; 40 °C, 10 days): No change | Purity (%) ([2]; 40 °C, 10 days): 96.9% | Purity (%) ([2]; 40 °C, 30 days): 95.3% | Crystal form ([2]; 60 °C, 5 days): No change | Purity (%) ([2]; 60 °C, 5 days): 97.2% | Crystal form ([2]; 60 °C, 10 days): No change | Purity (%) ([2]; 60 °C, 10 days): 96.5% | Purity (%) ([2]; 60 °C, 30 days): 94.5% | Crystal form ([2]; 75% RH, 5 days): No change | Purity (%) ([2]; 75% RH, 5 days): 97.5% | Crystal form ([2]; 75% RH, 10 days): No change | Purity (%) ([2]; 75% RH, 10 days): 97.1% | Purity (%) ([2]; 75% RH, 30 days): 96.5% | Purity (%) ([2]; Initial, 0 days): 98.1%

Compound: C[C@H]1CC2(CCN(c3ccc(C(=O)N4CCC(CN5CCN(c6cccc(N[C@H]7CCC(=O)NC7=O)c6)CC5)CC4)cc3F)CC2)CN1c1ccc(C#N)c(Cl)c1 [Amorphous form, 2-chloro-4-((S)-8-(4-(4-((4-(3-(((S)-2,6-dioxopiperidin-3-yl)amino)phenyl)piperazin-1-yl)methyl)piperidine-1-carbonyl)-2-fluorophenyl)-3-methyl-2,8-diazaspiro[4.5]decan-2-yl)benzonitrile]
Purity (%) ([1]; 25 °C/60% RH, 1 month): 98.7% | Purity (%) ([1]; 25 °C/60% RH, 2 months): 98.5% | Purity (%) ([1]; 25 °C/60% RH, 3 months): 98.5% | Purity (%) ([1]; 25 °C/60% RH, 6 months): 98.5% | Purity (%) ([1]; 25 °C/60% RH, Initial): 98.8% | Crystal form ([1]; 25 °C/60% RH): No change | Purity (%) ([1]; 40 °C/75% RH, 1 month): 98.7% | Purity (%) ([1]; 40 °C/75% RH, 2 months): 98.4% | Purity (%) ([1]; 40 °C/75% RH, 3 months): 98.4% | Purity (%) ([1]; 40 °C/75% RH, 6 months): 98.3% | Purity (%) ([1]; 40 °C/75% RH, Initial): 98.8% | Crystal form ([1]; 40 °C/75% RH): No change | physical and chemical stability ([1]; long-term accelerated conditions for 6 months): good physical and chemical stability | Crystal form ([2]; 40 °C, 5 days): No change | Purity (%) ([2]; 40 °C, 5 days): 98.7% | Crystal form ([2]; 40 °C, 10 days): No change | Purity (%) ([2]; 40 °C, 10 days): 98.6% | Crystal form ([2]; 40 °C, 30 days): No change | Purity (%) ([2]; 40 °C, 30 days): 98.6% | Crystal form ([2]; 60 °C, 5 days): No change | Purity (%) ([2]; 60 °C, 5 days): 98.6% | Crystal form ([2]; 60 °C, 10 days): No change | Purity (%) ([2]; 60 °C, 10 days): 98.6% | Crystal form ([2]; 60 °C, 30 days): No change | Purity (%) ([2]; 60 °C, 30 days): 98.4% | Crystal form ([2]; 75% RH, 5 days): No change | Purity (%) ([2]; 75% RH, 5 days): 98.7% | Crystal form ([2]; 75% RH, 10 days): No change | Purity (%) ([2]; 75% RH, 10 days): 98.7% | Crystal form ([2]; 75% RH, 30 days): No change | Purity (%) ([2]; 75% RH, 30 days): 98.7% | Crystal form ([2]; 92.5% RH, 5 days): No change | Purity (%) ([2]; 92.5% RH, 5 days): 98.7% | Crystal form ([2]; 92.5% RH, 10 days): No change | Purity (%) ([2]; 92.5% RH, 10 days): 98.7% | Crystal form ([2]; 92.5% RH, 30 days): No change | Purity (%) ([2]; 92.5% RH, 30 days): 98.6% | Purity (%) ([2]; Initial, 0 days): 98.8% | chemical stability ([2]; high-temperature and high-humidity conditions): good chemical stability

Compound: C[C@H]1CC2(CCN(c3ccc(C(=O)N4CCC(CN5CCN(c6cccc(N[C@H]7CCC(=O)NC7=O)c6)CC5)CC4)cc3F)CC2)CN1c1ccc(C#N)c(Cl)c1 [Crystal form A of mandelate]
hygroscopic weight gain ([3]; accelerated test conditions, 70% RH): about 1.047% | crystal form before and after DVS testing (XRPD) ([3]; before and after DVS testing): did not change | hygroscopic weight gain ([3]; extreme conditions, 90% RH): about 2.245% | hygroscopic weight gain ([3]; normal storage conditions, 25 °C and 60% RH): about 0.833% | Purity (%) ([1]; 25 °C/60% RH, 1 month): 99.4% | Purity (%) ([1]; 25 °C/60% RH, 2 months): 99.3% | Purity (%) ([1]; 25 °C/60% RH, 3 months): 99.3% | Purity (%) ([1]; 25 °C/60% RH, 6 months): 99.3% | Purity (%) ([1]; 25 °C/60% RH, Initial): 99.4% | Crystal form ([1]; 25 °C/60% RH): No change | Purity (%) ([1]; 40 °C/75% RH, 1 month): 99.4% | Purity (%) ([1]; 40 °C/75% RH, 2 months): 99.3% | Purity (%) ([1]; 40 °C/75% RH, 3 months): 99.3% | Purity (%) ([1]; 40 °C/75% RH, 6 months): 98.9% | Purity (%) ([1]; 40 °C/75% RH, Initial): 99.4% | Crystal form ([1]; 40 °C/75% RH): No change | Crystal form ([2]; 40 °C, 5 days): No change | Purity (%) ([2]; 40 °C, 5 days): 98.6% | Crystal form ([2]; 40 °C, 10 days): No change | Purity (%) ([2]; 40 °C, 10 days): 98.6% | Crystal form ([2]; 40 °C, 30 days): No change | Purity (%) ([2]; 40 °C, 30 days): 98.4% | Crystal form ([2]; 60 °C, 5 days): No change | Purity (%) ([2]; 60 °C, 5 days): 98.4% | Crystal form ([2]; 60 °C, 10 days): No change | Purity (%) ([2]; 60 °C, 10 days): 98.5% | Crystal form ([2]; 60 °C, 30 days): No change | Purity (%) ([2]; 60 °C, 30 days): 98.2% | Crystal form ([2]; 75% RH, 5 days): No change | Purity (%) ([2]; 75% RH, 5 days): 98.5% | Crystal form ([2]; 75% RH, 10 days): No change | Purity (%) ([2]; 75% RH, 10 days): 98.5% | Crystal form ([2]; 75% RH, 30 days): No change | Purity (%) ([2]; 75% RH, 30 days): 98.5% | Purity (%) ([2]; Initial, 0 days): 98.6%

Compound: C[C@H]1CC2(CCN(c3ccc(C(=O)N4CCC(CN5CCN(c6cccc(NC7CCC(=O)NC7=O)c6)CC5)CC4)cc3F)CC2)CN1c1ccc(C#N)c(Cl)c1 (stereo partly drawn) [Example 1, 2-Chloro-4-((3S)-8-(4-(4-((4-(3-((2,6-dioxopiperidin-3-yl)amino)phenyl)piperazin-1-yl)methyl)piperidine-1-carbonyl)-2-fluorophenyl)-3-methyl-2,8-diazaspiro[4.5]decan-2-yl)benzonitrile]
DC50 (androgen receptor (AR)): 2.5 nM

AUC(0-t) ([4]; read-out: Area under curve AUC0-t): 282 ng·h/mL | CL/F ([4]; read-out: Clearance rate CL/F): 44.6 mL/min/kg | Cmax ([4]; read-out: Plasma concentration Cmax): 15.9 ng/mL | AUC(0-t) (in vivo): 239 ng·h/mL | CL/F (in vivo): 70.9 mL/min/kg | Cmax (in vivo): 13 ng/mL
Compound: N#Cc1ccc(O[C@H]2CC[C@H](NC(=O)c3ccc(N4CCC(CN5CCN(c6cc7c(cc6F)C(=O)N(C6CCC(=O)NC6=O)C7=O)CC5)CC4)nn3)CC2)cc1Cl (stereo partly drawn) [ARV-110]
